Reference: article PMC12561670, “Isolation of Dual-Active Drugs with Anticancer and Antibacterial Activities That Target Both Tubulin and FtsZ” (Antibiotics, 2025)
Converted amounts (≈) assume the structure as drawn. Where a name gives a salt, the structure may show the parent alone. Read-outs that look alike come from different tables or passages of the source.

How the values were obtained:
bovine brain tubulin = experiment: Inhibition of tubulin polymerization; assay type: biochemical; conditions: 10 μM bovine brain tubulin, 20 min; read-out: IC50 ± SD Tubulin (inhibition of tubulin polymerization)
Method: Compounds with a certain concentration were pre-incubated with 10 μM bovine brain tubulin in glutamate buffer at 30 °C, and then cooled to 0 °C. The absorbance of 350 nm was immediately measured at 30 °C, as soon as the addition of 0.4 mM GTP. The absorbance would be detected continuously for 20 min. The IC50 was defined as the compound concentration that inhibited tubulin polymerization by 50% during 20 min.

B. subtilis (CICC 21164) = experiment: MIC, broth microdilution; assay type: cell-based; conditions: Bacillus subtilis, 18 h, read-out: MIC B. subtilis (CICC 21164)
Method: MIC assays were carried out by employing the broth microdilution method in accordance with Clinical and Laboratory Standards Institute (CLSI) guidelines. E. coli BNCC337004, S. aureus BNCC336423, P. aeruginosa BNCC337099, and B. subtilis CICC 21164 were applied for the MIC detection. Mueller–Hinton broth (MHB) was used in bacterial culture, and log-phase bacteria were diluted into a 0.5 McFarland Standard suspension, which was then diluted 1000 times again. Subsequently, 100 μL of the obtained bacterial suspension was placed into each well of 96-well microtiter plates, along with 2-fold serial dilutions of compounds (512, 256, 128, 64, 32, 16, 8, 4, 2, 1, 0.5, 0 μM). The microtiter plates were incubated aerobically for 18 h at 37 °C. The MIC was defined as the lowest drug concentration at which no visible turbidity was observed. All experiments are conducted in three parallel.

FtsZ = molecular target: T1, FtsZ (Staphylococcus aureus, UniProt P0A031); experiment: Sedimentation assay of FtsZ polymerization; assay type: biochemical; conditions: 50 μM compound, 5 μM FtsZ, 37 °C 30 min
T1 construct: His tag; made in house; host or cells: E. coli BL21(DE3)
T1 sequence (P0A031 1-390): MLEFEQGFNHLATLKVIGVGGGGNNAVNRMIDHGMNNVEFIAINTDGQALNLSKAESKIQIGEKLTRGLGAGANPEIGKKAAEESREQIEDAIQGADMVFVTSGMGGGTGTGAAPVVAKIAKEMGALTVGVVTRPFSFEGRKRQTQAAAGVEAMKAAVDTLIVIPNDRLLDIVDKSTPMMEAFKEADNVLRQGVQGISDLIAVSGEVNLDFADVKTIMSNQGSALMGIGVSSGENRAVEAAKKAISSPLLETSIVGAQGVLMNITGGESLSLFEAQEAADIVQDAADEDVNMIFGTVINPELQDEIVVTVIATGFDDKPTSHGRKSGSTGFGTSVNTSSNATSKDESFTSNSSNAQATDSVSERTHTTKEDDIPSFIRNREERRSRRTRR
Method: Sedimentation assay was also conducted for the influence of compounds on FtsZ polymerization. FtsZ (5 μM) was polymerized in a buffer containing 25 mM Pipes buffer (pH 6.8) and 3 mM MgSO4 in the […] of DMSO or compounds (50 μM). After the addition of 4 mM GTP, the sample was instantly placed at 37 °C for 30 min. Then, the polymers were collected by centrifuging for 30 min at 25 °C. The protein concentration in the supernatant was determined using the Bradford quantification method, with bovine serum albumin (BSA) as the standard. The experiment was performed in triplicate, and the average absorbance is shown.

E. coli (ATCC 8739) = experiment: MIC, broth microdilution; assay type: cell-based; conditions: Escherichia coli, read-out: MIC E. coli (ATCC 8739)
P. aeruginosa (DSM 939) = experiment: MIC, broth microdilution; assay type: cell-based; conditions: Pseudomonas aeruginosa, read-out: MIC P. aeruginosa (DSM 939)
S. aureus (ATCC 6538) = experiment: MIC, broth microdilution; assay type: cell-based; conditions: Staphylococcus aureus, read-out: MIC S. aureus (ATCC 6538)
S. aureus FtsZ = molecular target: T2, S. aureus FtsZ (Staphylococcus aureus, UniProt P0A031); experiment: FtsZ polymerization assay (A340); assay type: biochemical; conditions: 50 μM compound, 5 µM FtsZ, 4 mM GTP, vs DMSO
T2 construct: His tag; made in house; host or cells: E. coli BL21(DE3)
T2 sequence (P0A031 1-390): T1 sequence (P0A031 1-390)
Method: The effect of compounds on S. aureus FtsZ polymerization was monitored by employing a microtiter plate-based spectrophotometric assay method, and the reactions were conducted in flat-bottomed 96-well microtiter plates. The degree of FtsZ polymerization was reflected by the corresponding changes in absorbance at 340 nm (A340). […] The polymerization reaction began immediately once 4 mM GTP was added, and then the polymerization was continuously monitored at 25 °C for 60 min by measuring A340 in BioTek-Synergy4 multifunctional enzyme-linked immunosorbent assay (ELISA) reader.

S. aureus BNCC336423 = experiment: Time–killing curve; assay type: cell-based; conditions: S. aureus BNCC336423, concentrations of 4× the MIC or greater
Method: S. aureus BNCC336423 was employed for the time–killing curve study. […] Meanwhile, DMSO with an equivalent volume was added to the vehicle control tube. The cultures were then subjected to shaking incubation at 37 °C. Subsequently, cultures were taken out at predetermined time intervals (0, 1, 2, 4, 6, 8, and 24 h), centrifuged at 16,000×g for 3 min, and diluted to an appropriate multiple. These diluted samples were then plated onto Tryptic Soy Agar (TSA) plates for enumeration. Following a 24 h incubation period at 37 °C, colonies on the TSA plates were counted for the CFU/mL, thereby providing insights into the time-dependent bactericidal activity of the tested compounds.

Cytotoxicity, CCK8 = assay type: cell-based; conditions: human
Method: The absorbance of 450 nm was measured in an ELISA reader (BioTek-Synergy 4, USA). Then, cell viability was calculated, and the corresponding images were drawn with GraphPad Prism 9.

B. subtilis = experiment: Phase-contrast microscopy, cell division inhibition; assay type: cell-based; conditions: 64 μM, 4 h
Method: Cell Division Inhibitory Screening Assay Cell division inhibitory activity of compounds was conducted as below. […] Afterwards, 1 mL of the sample was centrifuged at 15,000× g for 3 min at room temperature, and the bacterial pellets were washed with 1 mL of PBS before re-centrifugation. The final bacterial pellets obtained were resuspended in 5 mL PBS. 20 μL of bacterial suspension was transferred to slides for microscopy. Cell morphology was estimated by using the phase-contrast method of Olympus IX71 microscopy (Olympus Corporation, Tokyo, Japan) with 400× magnification.

E. coli = experiment: In vivo antibacterial activity, mouse peritoneal infection; design: species or system CD-1 male mice
Text: SPF grade CD-1 male mice weighing 30 ± 3 g were purchased from Shanghai Slake Experimental Animal Co., Ltd. (Shanghai, China). […] Immediately following this, the mice were intraperitoneally injected with the test compounds. Each experimental group consisted of five mice, with each compound being tested at two distinct concentration gradients (determined based on the minimum inhibitory concentration, MIC). A separate group received physiological saline as a negative control. The subsequent assessment focused on evaluating the therapeutic potential of these drugs against bacterial infections. On the first and third days post-administration, 2 mL of sterile physiological saline was injected into the peritoneal cavity of each mouse. After a gentle two-minute dilution under sterile conditions, the abdominal fluid was extracted for bacterial enumeration using the plate counting method. Furthermore, the clinical manifestations of each mouse group, encompassing mental status, appetite, and other relevant parameters, were meticulously observed over a seven-day period. On the seventh day, the mice were euthanized, and a thorough macroscopic examination was conducted to assess the pathological changes in various vital organs.

[1] = ATCC8739, broth microdilution, 18 h, 37 °C
[2] = DSM939, broth microdilution, 18 h, 37 °C
[3] = ATCC6538, broth microdilution, 18 h, 37 °C
[4] = 293T cells (renal epithelial cells), read-out: cell viability HT293 (293T)
[5] = LO2 cells (normal hepatic cells), read-out: cell viability LO2

Structure (SMILES)	IC50 (bovine brain tubulin) [µM]	MIC (B. subtilis (CICC 21164); broth microdilution, 37 °C) [µM]	effect on FtsZ sedimentation (polymerization amount) (FtsZ)	MIC (E. coli (ATCC 8739); [1]) [µM]	MIC (P. aeruginosa (DSM 939); [2]) [µM]	MIC (S. aureus (ATCC 6538); [3]) [µM]	effect on FtsZ polymerization (A340) (S. aureus FtsZ)	logs of kill in time–kill (S. aureus BNCC336423) [logs]	viability at 12 h, 100 µM (Cytotoxicity, CCK8; [4]) [%]	viability at 12 h, 100 µM (Cytotoxicity, CCK8; [5]) [%]	MIC (B. subtilis (CICC 21164)) [µM]	MIC (E. coli (ATCC 8739); ATCC8739, 18 h) [µM]	MIC (P. aeruginosa (DSM 939); DSM939, 18 h) [µM]	viability at 12 h, 100 µM (Cytotoxicity, CCK8; read-out: cell viability HT293 (293T)) [%]	viability at 12 h, 100 µM (Cytotoxicity, CCK8; read-out: cell viability LO2) [%]	MIC (S. aureus (ATCC 6538); ATCC6538, 18 h) [µM]	cell morphology of B. subtilis (elongation) (B. subtilis)	bacterial count of peritoneal fluid (E. coli; mice i.p. E. coli, i.p. compound, days 1 and 3)	clinical presentation of infected mice (E. coli; seven-day observation)
CC[C@]1(O)C[C@H]2CN(CCc3c([nH]c4ccccc34)[C@@](C(=O)OC)(c3cc4c(cc3OC)N(C=O)[C@H]3[C@@](O)(C(=O)OC)[C@H](OC(C)=O)[C@]5(CC)C=CCN6CC[C@]43[C@@H]65)C2)C1 [Compound 6, Vincristine sulfate]		16	negligible effects	64	32	8													
CN(C)c1ccc2c(c1)Sc1cc(N(C)C)ccc1N2 [Compound 33, Leucomethylene blue mesylate]	74.46 ± 0.25	64	varying degrees of inhibition on FtsZ polymerization	32	2	4	minimal impact on the dynamics of FtsZ polymerization	3	80	65									
C[C@]12CC[C@@H]3c4ccc(OC(=O)N(CCCl)CCCl)cc4CC[C@H]3[C@@H]1CC[C@@H]2O [Compound 56, Estramustine]	38.66 ± 0.28		negligible effects				minimal impact on the dynamics of FtsZ polymerization				64 (≈ 28.2 µg/mL)	128 (≈ 56.4 µg/mL)	32 (≈ 14.1 µg/mL)	98	99	128 (≈ 56.4 µg/mL)			
CC(C)CNc1ccnc(NCc2csc(-c3ccccc3)n2)n1 [Compound 60, KHS 101]	5.62 ± 0.12	64 (≈ 21.7 µg/mL)	varying degrees of inhibition on FtsZ polymerization	16 (≈ 5.43 µg/mL)	8 (≈ 2.72 µg/mL)	8 (≈ 2.72 µg/mL)	apparent inhibitory tendencies towards FtsZ polymerization		89	90									
CN(C)c1ccc2nc3ccc(=[N+](C)C)cc-3sc2c1 [Compound 71, Methylene Blue]		32	negligible effects	64	64	2		3											
COc1ccc2cc3[n+](cc2c1OC)CCc1cc2c(cc1-3)OCO2 [Compound 82, Berberine]		64	varying degrees of inhibition on FtsZ polymerization	64	8	4	robust inhibitory activity against FtsZ polymerization										varying degrees of elongation	substantially mitigated	exhibited vitality, maintained a healthy appetite
